Biological target: LRRK2 G2019S (Homo sapiens, UniProt Q5S007, G2019S)
Assay: LRRK2 G2019S Km ATP LanthaScreen assay
Type: biochemical
Settings: not given
Description: Unless otherwise noted, all reactions are magnetically stirred. Unless otherwise noted, when diethyl ether is used in the experiments described below, it is Fisher ACS certified material and is stabilized with BHT. Unless otherwise noted, “concentrated” and/or “solvent removed under reduced pressure” means evaporating the solvent from a solution or mixture using a rotary evaporator or vacuum pump. Unless otherwise noted, flash chromatography is carried out on a Teledyne Isco (Lincoln, NE), Analogix (Burlington, WI), or Biotage (Stockholm, SWE) automated chromatography system using a commercially available cartridge as the column. Columns may be purchased from Teledyne Isco, Analogix, Biotage, Varian (Palo Alto, CA), or Supelco (Bellefonte, PA) and are usually filled with silica gel as the stationary phase. Reverse phase prep-HPLC conditions, where used, can be found at the end of each experimental section. Aqueous solutions were concentrated on a Genevac (Ipswich, ENG) or by freeze-drying/lyophilization.

Chain of LRRK2 G2019S (Q5S007 whole entry G2019S): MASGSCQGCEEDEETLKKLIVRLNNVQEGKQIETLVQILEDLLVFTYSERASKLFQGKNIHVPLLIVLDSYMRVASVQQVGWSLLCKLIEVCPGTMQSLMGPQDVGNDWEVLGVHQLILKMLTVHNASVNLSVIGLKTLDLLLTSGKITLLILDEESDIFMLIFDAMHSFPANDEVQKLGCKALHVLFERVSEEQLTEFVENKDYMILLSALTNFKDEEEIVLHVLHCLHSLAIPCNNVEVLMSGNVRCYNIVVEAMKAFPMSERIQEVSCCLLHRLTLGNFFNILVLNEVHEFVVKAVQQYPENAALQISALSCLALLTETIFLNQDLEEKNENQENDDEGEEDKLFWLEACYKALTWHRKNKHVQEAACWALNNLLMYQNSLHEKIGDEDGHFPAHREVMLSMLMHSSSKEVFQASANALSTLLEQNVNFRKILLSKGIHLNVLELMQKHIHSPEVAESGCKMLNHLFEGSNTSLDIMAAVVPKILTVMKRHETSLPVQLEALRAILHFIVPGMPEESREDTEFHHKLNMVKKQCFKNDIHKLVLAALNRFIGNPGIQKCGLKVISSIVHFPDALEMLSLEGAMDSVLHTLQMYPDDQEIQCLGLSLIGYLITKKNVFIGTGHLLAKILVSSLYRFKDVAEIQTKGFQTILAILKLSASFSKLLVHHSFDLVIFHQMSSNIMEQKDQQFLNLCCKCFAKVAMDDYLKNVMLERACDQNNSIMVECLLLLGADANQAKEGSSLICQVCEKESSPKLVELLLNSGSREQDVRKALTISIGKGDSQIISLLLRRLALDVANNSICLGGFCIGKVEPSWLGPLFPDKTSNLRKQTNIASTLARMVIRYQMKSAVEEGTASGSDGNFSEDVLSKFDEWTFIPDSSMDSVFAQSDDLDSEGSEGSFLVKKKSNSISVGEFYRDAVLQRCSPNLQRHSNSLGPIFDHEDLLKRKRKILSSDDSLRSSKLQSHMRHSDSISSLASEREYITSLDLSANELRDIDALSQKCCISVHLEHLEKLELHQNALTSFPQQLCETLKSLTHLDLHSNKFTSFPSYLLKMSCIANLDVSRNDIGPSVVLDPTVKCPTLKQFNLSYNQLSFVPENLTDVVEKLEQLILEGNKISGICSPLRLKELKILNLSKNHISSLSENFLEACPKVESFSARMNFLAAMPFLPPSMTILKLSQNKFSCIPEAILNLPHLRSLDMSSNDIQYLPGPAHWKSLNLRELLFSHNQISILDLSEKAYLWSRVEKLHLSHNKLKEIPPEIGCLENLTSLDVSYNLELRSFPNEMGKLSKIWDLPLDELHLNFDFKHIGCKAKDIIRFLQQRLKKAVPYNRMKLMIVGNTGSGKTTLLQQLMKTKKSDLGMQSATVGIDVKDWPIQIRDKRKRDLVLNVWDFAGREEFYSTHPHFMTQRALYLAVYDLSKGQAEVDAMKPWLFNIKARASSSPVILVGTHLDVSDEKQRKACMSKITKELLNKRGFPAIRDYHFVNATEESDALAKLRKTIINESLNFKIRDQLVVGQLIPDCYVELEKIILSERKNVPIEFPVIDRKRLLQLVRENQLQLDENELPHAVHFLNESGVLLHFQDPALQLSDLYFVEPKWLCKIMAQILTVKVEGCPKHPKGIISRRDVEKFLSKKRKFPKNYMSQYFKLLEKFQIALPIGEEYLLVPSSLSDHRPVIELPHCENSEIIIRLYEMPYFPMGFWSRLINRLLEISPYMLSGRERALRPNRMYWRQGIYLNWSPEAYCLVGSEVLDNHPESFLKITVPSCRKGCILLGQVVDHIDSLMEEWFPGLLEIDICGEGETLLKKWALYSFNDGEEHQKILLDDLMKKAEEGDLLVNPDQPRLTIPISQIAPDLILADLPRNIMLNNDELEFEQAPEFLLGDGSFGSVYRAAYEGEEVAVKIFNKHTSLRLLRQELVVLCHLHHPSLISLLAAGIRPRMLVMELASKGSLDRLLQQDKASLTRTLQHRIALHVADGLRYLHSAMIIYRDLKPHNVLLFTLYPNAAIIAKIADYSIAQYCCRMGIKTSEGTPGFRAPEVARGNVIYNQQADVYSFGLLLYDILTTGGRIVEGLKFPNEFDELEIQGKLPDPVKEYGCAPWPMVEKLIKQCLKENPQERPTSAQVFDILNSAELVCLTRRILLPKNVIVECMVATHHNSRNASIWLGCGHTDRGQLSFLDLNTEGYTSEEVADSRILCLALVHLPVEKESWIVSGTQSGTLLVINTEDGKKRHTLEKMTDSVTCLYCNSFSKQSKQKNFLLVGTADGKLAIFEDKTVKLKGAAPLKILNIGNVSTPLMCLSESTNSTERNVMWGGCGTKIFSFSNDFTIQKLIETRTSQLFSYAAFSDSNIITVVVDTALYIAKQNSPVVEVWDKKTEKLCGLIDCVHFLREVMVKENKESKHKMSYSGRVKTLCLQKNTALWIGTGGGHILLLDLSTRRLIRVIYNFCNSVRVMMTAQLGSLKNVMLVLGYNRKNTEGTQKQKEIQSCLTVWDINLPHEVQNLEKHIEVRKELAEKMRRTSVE

| SMILES | LRRK2 pIC50 |
| --- | --- |
| O=C(Nc1cc2cc(C3CCN(C4COC4)CC3)c(Cl)cc2cn1)C1CC12CC2 (stereo not drawn) [Ex-9.1] | 8.69 |

Same assay, conditions: read-out: LRRK2 pIC50 (converted)

| SMILES | IC50 [nM] |
| --- | --- |
| CC1(N2CCC(c3cc4cc(NC(=O)C5CC5c5cc(F)ccn5)ncc4cc3Cl)CC2)COCC1O (single isomer, unassigned) [Ex-4.39, N-(7-chloro-6-(1-(4-hydroxy-3-methyltetrahydrofuran-3-yl)piperidin-4-yl)isoquinolin-3-yl)-2-(4-fluoropyridin-2-yl)cyclopropane-1-carboxamide] | 135 |
| CC1(N2CCC(c3cc4cc(NC(=O)[C@@H]5CCCO5)ncc4cc3Cl)CC2)COCC1O (stereo partly drawn) [Ex-2.28] | 0.513 |
| CC(C)(O)C1CC(C(=O)Nc2cc3cc(C4CCN(C5(C)COCC5O)CC4)c(Cl)cc3cn2)C1 (stereo not drawn) [Ex-2.13] | 0.174 |
| CC1(N2CCC(c3cc4cc(NC(=O)C5CCC5c5ccccn5)ncc4cc3Cl)CC2)COCC1O (single isomer, unassigned) [Ex-4.73, N-(7-chloro-6-(1-(4-hydroxy-3-methyltetrahydrofuran-3-yl)piperidin-4-yl)isoquinolin-3-yl)-2-(pyridin-2-yl)cyclobutane-1-carboxamide] | 661 |
| CC1(C)CC(C(=O)Nc2cc3cc(C4CCN(C5(C)COCC5O)CC4)c(Cl)cc3cn2)CO1 (stereo not drawn) [Ex-2.29] | 0.234 |
| Cc1cc2cnc(NC(=O)C3CC3C(F)F)cc2cc1C1CCN(C2(C)COCC2O)CC1 (stereo not drawn) [Ex-2.53] | 0.813 |
| CC1(N2CCC(c3cc4cc(NC(=O)Cc5cnn(C(F)F)c5)ncc4cc3Cl)CC2)COCC1O (stereo not drawn) [Ex-3.11] | 0.631 |
| Cn1ccc(C2CC2C(=O)Nc2cc3cc(C4(C#N)CC45CC5)ccc3cn2)n1 (stereo not drawn) [Ex-2.71] | 5.75 |
| CC1(N2CCC(c3cc4cc(NC(=O)C5CC(c6ccccn6)C5)ncc4cc3Cl)CC2)COCC1O (single isomer, unassigned) [Ex-4.76, N-(7-chloro-6-(1-(4-hydroxy-3-methyltetrahydrofuran-3-yl)piperidin-4-yl)isoquinolin-3-yl)-3-(pyridin-2-yl)cyclobutane-1-carboxamide] | 41.7 |
| CCC1C(C(=O)Nc2cc3cc(C4CC45CC5)c(Cl)cc3cn2)C1c1cnn(C)c1 (stereo not drawn) [Ex-2.99] | 117 |
| CC1(N2CCC(c3cc4cc(NC(=O)C5C6CCOCC65)ncc4cc3Cl)CC2)COCC1O (single isomer, unassigned) [Ex-4.34, N-(7-chloro-6-(1-(4-hydroxy-3-methyltetrahydrofuran-3-yl)piperidin-4-yl)isoquinolin-3-yl)-3-oxabicyclo[4.1.0]heptane-7-carboxamide] | 1.38 |
| CC1(N2CCC(c3cc4cc(NC(=O)C5C6CCCOC65)ncc4cc3Cl)CC2)COCC1O (single isomer, unassigned) [Ex-4.12, N-(7-chloro-6-(1-(4-hydroxy-3-methyltetrahydrofuran-3-yl)piperidin-4-yl)isoquinolin-3-yl)-2-oxabicyclo[4.1.0]heptane-7-carboxamide] | 0.398 |
| CCC1C(C(=O)Nc2cc3cc(C4(C#N)CC45CC5)ccc3cn2)C1c1cnn(C)c1 (single isomer, unassigned) [Ex-1.25, (1R,3R or 1S,3S)-N-(6-((R or S)-1-cyanospiro[2.2]pentan-1-yl)isoquinolin-3-yl)-2-ethyl-3-(1-methyl-1H-pyrazol-4-yl)cyclopropane-1-carboxamide] | 0.661 |
| CC1(N2CCC(c3cc4cc(NC(=O)c5cnn(C6CC6)c5Cl)ncc4cc3Cl)CC2)COCC1F (single isomer, unassigned) [Ex-1.51, 5-chloro-N-(7-chloro-6-(1-((3R,4R or 3S,4S)-4-fluoro-3-methyltetrahydrofuran-3-yl)piperidin-4-yl)isoquinolin-3-yl)-1-cyclopropyl-1H-pyrazole-4-carboxamide] | 0.112 |
| CC1(N2CCC(c3cc4cc(NC(=O)C5CC56CCOCC6)ncc4cc3Cl)CC2)CCOC1 (stereo not drawn) [Ex-2.23] | 0.166 |
| N#CC1(c2ccc3cnc(NC(=O)C4CC45CCOC5)cc3c2)CC12CC2 (stereo not drawn) [Ex-2.64] | 10.5 |
| N#CC1(c2ccc3cnc(NC(=O)C4C5Oc6cc(Cl)ncc6C54)cc3c2)CC12CC2 (single isomer, unassigned) [Ex-1.33, (1S,1aR,6bS or 1R,1aS,6bR)-4-chloro-N-(6-((R or S)-1-cyanospiro[2.2]pentan-1-yl)isoquinolin-3-yl)-1a,6b-dihydro-1H-cyclopropa[4,5]furo[3,2-c]pyridine-1-carboxamide] | 28.2 |
| O=C(Nc1cc2cc(C3CCN(C4COCC4O)CC3)c(Cl)cc2cn1)C1CC12CCOCC2 (single isomer, unassigned) [Ex-4.3, N-(7-chloro-6-(1-(4-hydroxytetrahydrofuran-3-yl)piperidin-4-yl)isoquinolin-3-yl)-6-oxaspiro[2.5]octane-1-carboxamide] | 18.2 |
| CC(C(=O)Nc1cc2cc(C3(C#N)CC34CC4)ccc2cn1)c1cnn(C)c1 (stereo not drawn) [Ex-2.110] | 0.575 |
| O=C(Nc1cc2cc(C3CCN(C4COC4)CC3)c(Cl)cc2cn1)C1CC(OC(F)F)C1 (single isomer, unassigned) [Ex-2.4] | 14.1 |
| CC(C(=O)Nc1cc2cc(C3CCN(C4(C)COCC4O)CC3)c(Cl)cc2cn1)c1cnn(C)c1 (stereo not drawn) [Ex-2.107] | 0.661 |

The next lines start with the values.

| IC50 [nM] | SMILES |
| --- | --- |
| 5.37 | CC1(C)CC(C(=O)Nc2cc3cc(C4CCN(C5(C)CCOC5)CC4)c(Cl)cc3cn2)CCO1 (single isomer, unassigned) [Ex-6.44, N-(7-chloro-6-(1-(3-methyltetrahydrofuran-3-yl)piperidin-4-yl)isoquinolin-3-yl)-2,2-dimethyltetrahydro-2H-pyran-4-carboxamide] |
| 35.5 | N#CC1(c2cc3cc(NC(=O)C4CC4)ncc3cc2F)CC12CC2 (single isomer, unassigned) [Ex-18.9, (R or S)-N-(6-(1-cyanospiro[2.2]pentan-1-yl)-7-fluoroisoquinolin-3-yl)cyclopropanecarboxamide] |
| 14.5 | N#CC1(c2ccc3cnc(NC(=O)C4CC4)cc3c2)CCC1 [Ex-17.2] |
| 389 | CC1(C)CC(C(=O)Nc2cc3cc(C4CCC(N5CCC(F)C5)CC4)c(Cl)cc3cn2)CCO1 (single isomer, unassigned) [Ex-5.16, N-(7-chloro-6-(4-(3-fluoropyrrolidin-1-yl)cyclohexyl)isoquinolin-3-yl)-2,2-dimethyltetrahydro-2H-pyran-4-carboxamid] |
| 22.4 | CCC1C(C(=O)Nc2cc3cc(C4CC(C#N)C4)c(Cl)cc3cn2)C1c1cnn(C)c1 (stereo not drawn) [Ex-9.18, N-(7-chloro-6-(3-cyanocyclobutyl)isoquinolin-3-yl)-2-ethyl-3-(1-methyl-1H-pyrazol-4-yl)cyclopropane-1-carboxamide] |
| 1.17 | O=C(Nc1cc2cc(C3CCN(C4COCC4O)CC3)c(Cl)cc2cn1)C1CC1 (single isomer, unassigned) [Ex-12.3, N-(7-chloro-6-(1-(4-hydroxytetrahydrofuran-3-yl)piperidin-4-yl)isoquinolin-3-yl)cyclopropanecarboxamide] |
| 0.275 | O=C(Nc1cc2cc(C3CCC(N4CC(F)(F)C4)CC3)c(Cl)cc2cn1)C1CC1c1ccccn1 (single isomer, unassigned) [Ex-5.5, N-(7-chloro-6-(4-(3,3-difluoroazetidin-1-yl)cyclohexyl)isoquinolin-3-yl)-2-(pyridin-2-yl)cyclopropane-1-carboxamide] |
| 0.871 | CC1(C)CC(C(=O)Nc2cc3cc(C4CCN(C5(C)COCC5F)CC4)c(Cl)cc3cn2)CCO1 (single isomer, unassigned) [Ex-6.38, N-(7-chloro-6-(1-(4-fluoro-3-methyltetrahydrofuran-3-yl)piperidin-4-yl)isoquinolin-3-yl)-2,2-dimethyltetrahydro-2H-pyran-4-carboxamide] |
| 1020 | CC1(C)CCC(C(=O)Nc2cc3cc(C4CCC(N5CCC(F)C5)CC4)c(Cl)cc3cn2)CO1 (single isomer, unassigned) [Ex-5.18, N-(7-chloro-6-(4-(3-fluoropyrrolidin-1-yl)cyclohexyl)isoquinolin-3-yl)-6,6-dimethyltetrahydro-2H-pyran-3-carboxamide] |
| 19.1 | O=C(Nc1cc2cc(C3CCN(C4COC4)CC3)c(Cl)cc2cn1)C1CC12CCOCC2 (single isomer, unassigned) [Ex-9.8, N-(7-chloro-6-(1-(oxetan-3-yl)piperidin-4-yl)isoquinolin-3-yl)-6-oxaspiro[2.5]octane-1-carboxamide] |
| 0.0813 | Cc1cc2cnc(NC(=O)C3CC34CCOCC4)cc2cc1C1CCN(C2(C)COCC2C)CC1 (single isomer, unassigned) [Ex-15.4, N-(6-(1-(3,4-dimethyltetrahydrofuran-3-yl)piperidin-4-yl)-7-methylisoquinolin-3-yl)-6-oxaspiro[2.5]octane-1-carboxamide] |
| 0.537 | CC1(N2CCC(c3cc4cc(NC(=O)C5CC56CCOC6)ncc4cc3Cl)CC2)COCC1F (single isomer, unassigned) [Ex-6.5, (R or S)-N-(7-chloro-6-(1-((3R,4R or 3S,4S)-4-fluoro-3-methyltetrahydrofuran-3-yl)piperidin-4-yl)isoquinolin-3-yl)-5-oxaspiro [2.4] heptane-1-carboxamide] |
| 110 | O=C(Nc1cc2cc(C3CCC(N4CC(F)(F)C4)CC3)c(Cl)cc2cn1)C1CC1c1ccccn1 (single isomer, unassigned) [Ex-5.3, N-(7-chloro-6-(4-(3,3-difluoroazetidin-1-yl)cyclohexyl)isoquinolin-3-yl)-2-(pyridin-2-yl)cyclopropane-1-carboxamide] |
| 4.17 | O=C(Nc1cc2cc(C3CCN(C4CS(=O)(=O)C4)CC3)c(Cl)cc2cn1)C1CC1 [Ex-13.5] |
